In patent publication US10336732B2, “1-heterocyclyl isochromanyl compounds and analogs for treating CNS disorders” (Sunovion Pharmaceuticals Inc., priority 2015, dated 2019):

Target: T1, 5-HT5a (Homo sapiens, UniProt P47898)
T1 construct: expressed in transfected cells; host or cells: HEK-293 cells
Experiment: In vitro radioligand binding assay, 5-HT5a, [3H]LSD
Conditions: human recombinant (HEK-293 cells)
Description: Certain compounds were tested by in vitro binding assays using standard procedures. […] These receptors and assays are well known to those skilled in the art, as exemplified by the following: Abramovitz, M. et al. (2000), Biochem. Biophys. Acta., 1483: 285-293 (EP4, IP (PGI2)); Aharony, D. et al. (1993), Mol. Pharmacol., 44: 356-363 (NK2); Ardati, A. et al. (1997), Mol. Pharmacol., 51: 816-824 (NOP (ORL1)); Bignon, E. et al. (1999), J. Pharmacol. Exp. Ther. 289: 742-751 (CCK1 (CCKA)); Bloomquist, B. T. et al. (1998), Biochem. Biophys. Res. Commun., 243: 474-479 (GAL2); Brockhaus, M. et al. (1990), Proc. Natl. Acad. Sci. U.S.A., 87: 3127-3131 (TNF-α); Brown, G. B. (1986), J. Neurosci., 6: 2064-2070 (Na+ channel (site 2)); Buchan, K. W. et al. (1994), Brit. J. Pharmacol., 112: 1251-1257 (ETA); Cesura, A. M. et al. (1990), Mol. Pharmacol., 37: 358-366 (MAO-A); Choi, D. S. et al. (1994), FEBS Lett., 352: 393-399 (5-HT2B); Clark, A. F. et al. (1996), Invest. Ophtalmol. Vis. […]

T1 sequence (P47898 whole entry): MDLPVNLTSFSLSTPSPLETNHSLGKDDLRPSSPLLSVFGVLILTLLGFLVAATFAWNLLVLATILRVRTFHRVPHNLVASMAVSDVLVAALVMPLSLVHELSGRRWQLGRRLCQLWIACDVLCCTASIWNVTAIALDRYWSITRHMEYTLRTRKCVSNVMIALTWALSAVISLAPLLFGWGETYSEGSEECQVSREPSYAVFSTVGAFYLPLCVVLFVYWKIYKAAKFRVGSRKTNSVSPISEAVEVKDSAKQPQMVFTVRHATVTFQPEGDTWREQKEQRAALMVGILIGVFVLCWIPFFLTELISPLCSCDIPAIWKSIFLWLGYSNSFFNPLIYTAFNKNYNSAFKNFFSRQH

Fc1cccc2c1[C@H]([C@@H]1CCN1)OCC2 [Compound I-83, (S)-2-((R)-8-fluoroisochroman-1-yl)azetidine]
5HT5a percent inhibition of specific binding: 58%
